Measured values published in US9951060B2, “2-acylaminothiazole derivative or salt thereof” (ASTELLAS PHARMA INC., priority 2014, dated 2018).
Where two headings read alike, the source gives them in different places.

Legend:
[1] = target: T1, human c-Mpl-introduced Ba/F3 cell (Homo sapiens, UniProt P40238); settings: disclosed in Table 1 of Patent Document 1 (WO 2005/007651); cited from earlier work
T1 construct: expressed in transfected cells
T1 sequence (P40238 26-635): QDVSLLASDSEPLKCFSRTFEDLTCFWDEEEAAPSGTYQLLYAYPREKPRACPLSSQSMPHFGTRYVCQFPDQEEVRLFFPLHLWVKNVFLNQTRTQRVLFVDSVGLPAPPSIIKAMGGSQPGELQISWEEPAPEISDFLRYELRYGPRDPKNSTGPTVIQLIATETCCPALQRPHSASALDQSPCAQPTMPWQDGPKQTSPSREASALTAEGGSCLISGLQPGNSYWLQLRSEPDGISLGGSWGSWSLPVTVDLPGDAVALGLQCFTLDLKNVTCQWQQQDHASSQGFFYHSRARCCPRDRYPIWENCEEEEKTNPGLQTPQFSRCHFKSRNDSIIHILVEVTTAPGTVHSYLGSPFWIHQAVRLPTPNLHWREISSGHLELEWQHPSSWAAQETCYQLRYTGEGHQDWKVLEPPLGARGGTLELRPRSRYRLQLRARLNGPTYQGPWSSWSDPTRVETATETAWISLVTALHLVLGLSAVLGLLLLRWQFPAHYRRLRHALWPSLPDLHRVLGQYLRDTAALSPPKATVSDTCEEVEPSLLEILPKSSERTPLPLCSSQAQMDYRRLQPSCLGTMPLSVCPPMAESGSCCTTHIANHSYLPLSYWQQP

[2] = target: T1, human c-Mpl-introduced Ba/F3 cell; experiment: Test Example 2: human c-Mpl-introduced Ba/F3 cell proliferative activity; format: cell-based; settings: concentration exhibiting 30% proliferation; 100% = positive control (Example 315 of Patent Document 1) at 1 μM
Procedure: Test Example 2: Evaluation of Human c-Mpl-Introduced Ba/F3 Cell Proliferative Activity
The human c-Mpl-introduced Ba/F3 cell proliferation action was measured by the following method.
As a positive control, 1-(5-{[4-(4-chlorothiophen-2-yl)-5-{[(2R)-2-methylpyrrolidin-1-yl]methyl}-1,3-thiazol-2-yl]carbamoyl}-3-fluoropyridin-2-yl)piperidine-4-carboxylic acid hydrochloride disclosed as Example 315 in Patent Document 1, represented by the formula (A1) above, was used. Further, it is known that the compound has a good human c-Mpl-introduced Ba/F3 cell proliferative activity as disclosed in Table 1 in Patent Document 1.
a) Construction of Vector Expressing Human c-Mpl Receptor
A human c-Mpl receptor gene (GenBank Accession No.: M90102.1) was transfected into an expression vector pEF-BOS (Nucleic Acids Research, 18: pp 5322 (1990)).
b) Construction of Cell Stably Expressing Human c-Mpl Receptor
A vector expressing a human c-Mpl receptor was introduced into a Ba/F3 cell (RIKEN BRC: RCB0805). For the introduction, an electroporation method was used. pEF-BOS-c-mpl (10 μg), pSV2bsr (1 μg, Kaken Pharmaceutical Co., Ltd.) and 1×10^7 of Ba/F3 cells were put into cuvettes with a gap width of 0.4 cm and electroporated under a condition of 1.5 kV (25 μF) in a Gene Pulser (registered trademark) (BioRad). The cells were incubated in an RPMI-1640 medium supplemented with a 0.5% WEHI conditioned medium (BD Biosciences) and 10% fetal bovine serum for 3 days, and thereafter, and the cells were incubated for 30 days in an RPMI-1640 medium, to which 10 μg/mL blasticidin had been further added, thereby acquiring a drug-resistant clone.
c) Measurement of Cell Proliferative Activity
The cells obtained in b) above were dispensed into an RPMI-1640 medium supplemented with a 0.5% WEHI conditioned medium and 10% fetal bovine serum, and used. The day before the experiment, the test substances (final concentration of 100 nM to 10 μM) which had been dissolved in a medium for assay (an RPMI-1640 medium supplemented with 10% fetal bovine serum) were added to a 384-well plate (Model No. 781185, Greiner bio-one). The cells after the medium had been replaced with the medium for assay were dispensed to a 384-well plate to which the test substance had been added, to 1×10^4 cells/well, and incubated overnight at 37° C. and 5% CO2. On the experiment day, a solution of a Cell counting kit (Dojindo Laboratories) was added to each well of the 384-well plate, and the cells were incubated for about 5 hours at 37° C. and 5% CO2. Thereafter, the absorbance (an absorbance wavelength of 450 nm) of each well was measured using Safire^2 (registered trademark) (TECAN), and used as an index for the number of cells. Further, as a negative control, a well to which the test substances had not been added was prepared.
By taking the absorbance of the well to which the test substance had been not added as 0% and taking the absorbance in a case where the positive control had been added to a final concentration of 1 μM as 100%, a cell proliferation rate (%) was calculated from the absorbance of the well to which the test substance had been added.

[3] = target: T2, human muscarinic M3 receptor (Homo sapiens, UniProt P20309); experiment: Test Example 1: muscarinic M3 receptor positive allosteric modulator activity (shift of carbachol concentration-response curve, intracellular Ca2+, FLIPR); settings: carbachol EC50 without / with test substance, CHO-K1 cells expressing human M3
[4] = target: T2, human muscarinic M3 receptor

T2 sequence (P20309 whole entry): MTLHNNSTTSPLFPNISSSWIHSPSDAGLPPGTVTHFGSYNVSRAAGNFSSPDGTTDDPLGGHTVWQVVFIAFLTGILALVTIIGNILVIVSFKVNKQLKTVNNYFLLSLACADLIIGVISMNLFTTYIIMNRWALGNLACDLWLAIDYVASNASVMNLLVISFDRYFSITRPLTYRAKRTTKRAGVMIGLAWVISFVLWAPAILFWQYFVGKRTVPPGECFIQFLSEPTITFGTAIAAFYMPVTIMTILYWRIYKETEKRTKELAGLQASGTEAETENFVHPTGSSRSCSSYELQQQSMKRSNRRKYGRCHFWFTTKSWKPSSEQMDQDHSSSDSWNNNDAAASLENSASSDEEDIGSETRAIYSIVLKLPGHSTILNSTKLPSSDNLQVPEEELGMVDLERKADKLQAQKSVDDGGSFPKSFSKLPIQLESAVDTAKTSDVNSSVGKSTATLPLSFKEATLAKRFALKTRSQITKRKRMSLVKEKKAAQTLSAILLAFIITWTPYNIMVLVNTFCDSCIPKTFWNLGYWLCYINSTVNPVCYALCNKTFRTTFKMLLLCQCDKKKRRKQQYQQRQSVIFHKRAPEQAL

Row | human c-Mpl-introduced Ba/F3 cell proliferative activity EC30 [2] [µM] | muscarinic M3 receptor-positive allosteric modulator activity, 1 μM (-fold shift) ([3]; test substance 1 μM) | muscarinic M3 receptor-positive allosteric modulator activity, 10 μM (-fold shift) ([3]; test substance 10 μM) | muscarinic M3 receptor-positive allosteric modulator activity, 1 μM (-fold shift) [4] | muscarinic M3 receptor-positive allosteric modulator activity, 10 μM (-fold shift) [4] | Structure (SMILES) | EC30 value of c-Mpl-introduced Ba/F3 cell proliferation action [1] [nM]
1 | – | – | – | – | – | C[C@@H]1CCCN1Cc1sc(NC(=O)c2cnc(N3CCC(C(=O)O)CC3)c(F)c2)nc1-c1cc(Cl)cs1.Cl [Example 315, 1-(5-{[4-(4-chlorothiophen-2-yl)-5-{[(2R)-2-methylpyrrolidin-1-yl]methyl}-1,3-thiazol-2-yl]carbamoyl}-3-fluoropyridin-2-yl)piperidine-4-carboxylic acid hydrochloride] | 3.2
2 | >3 | 25 -fold shift | 200 -fold shift | – | – | Cc1cc(-c2nc(NC(=O)c3cnc(N4CCN(CCC(=O)[O-])CC4)cn3)sc2CN2CCCC[C@H]2C)cc(C(F)(F)F)c1.[Na+] [Example 4, sodium 3-(4-{5-[(5-{[(2R)-2-methylpiperidin-1-yl]methyl}-4-[3-methyl-5-(trifluoromethyl)phenyl]-1,3-thiazol-2-yl)carbamoyl]pyrazin-2-yl}piperazin-1-yl)propanoate] | –
3 | >10 | – | – | 28 -fold shift | 151 -fold shift | Cc1cc(-c2nc(NC(=O)c3cnc(N4CCN(CC(=O)O)CC4)cn3)sc2CN2CCC[C@H]2C)cc(C(F)(F)F)c1 [Example 71] | –
4 | 3.2 | – | – | 82 -fold shift | 229 -fold shift | C[C@@H]1CCCN1Cc1sc(NC(=O)c2cnc(N3CCN(CCC(=O)O)C[C@@H]3C)cn2)nc1-c1cc(C(F)(F)F)cs1 [Example 100] | –
5 | 5 | – | – | 203 -fold shift | 627 -fold shift | C[C@@H]1CC[C@@H](C)N1Cc1sc(NC(=O)c2cnc(N3CCN(CCC(=O)O)CC3)cn2)nc1-c1cc(C(F)(F)F)cs1 [Example 111] | –
6 | 1.7 | – | – | 202 -fold shift | 307 -fold shift | C[C@@H]1CCCN1Cc1sc(NC(=O)c2cnc(N3CCN(CC(=O)O)CC3)cn2)nc1-c1cc(C(F)(F)F)cs1 [Example 103] | –
7 | >10 | – | – | 30 -fold shift | 203 -fold shift | COc1c(F)cc(-c2nc(NC(=O)c3cnc(N4CCN(CCC(=O)O)C[C@H]4C)cn3)sc2CN2CCC[C@H]2C)cc1C(F)(F)F [Example 92] | –
8 | >10 | – | – | 15 -fold shift | 109 -fold shift | C[C@@H]1CCCN1Cc1sc(NC(=O)c2cnc(N3CCN(CCC(=O)O)C[C@@H]3C)cn2)nc1-c1cc(F)cc(C(F)(F)F)c1 [Example 17] | –
